# Test results from article PMC12390684 (Viruses, 2025).
# Biological target: IN-GCN2 interaction (6xHis-IN / GST-GCN2) (UniProt P04585+Q9P2K8)
# Assay: biochemical
# Assay type: binding, HIV-1 IN; human GCN2
# Conditions: screen; for IN-GCN2 interaction (%): single dose 100 µM, single replicate, residual AlphaLISA signal normalized to DMSO control
# IN-GCN2 interaction (6xHis-IN / GST-GCN2), sequence (Q9P2K8 192-1024, other chains not shown): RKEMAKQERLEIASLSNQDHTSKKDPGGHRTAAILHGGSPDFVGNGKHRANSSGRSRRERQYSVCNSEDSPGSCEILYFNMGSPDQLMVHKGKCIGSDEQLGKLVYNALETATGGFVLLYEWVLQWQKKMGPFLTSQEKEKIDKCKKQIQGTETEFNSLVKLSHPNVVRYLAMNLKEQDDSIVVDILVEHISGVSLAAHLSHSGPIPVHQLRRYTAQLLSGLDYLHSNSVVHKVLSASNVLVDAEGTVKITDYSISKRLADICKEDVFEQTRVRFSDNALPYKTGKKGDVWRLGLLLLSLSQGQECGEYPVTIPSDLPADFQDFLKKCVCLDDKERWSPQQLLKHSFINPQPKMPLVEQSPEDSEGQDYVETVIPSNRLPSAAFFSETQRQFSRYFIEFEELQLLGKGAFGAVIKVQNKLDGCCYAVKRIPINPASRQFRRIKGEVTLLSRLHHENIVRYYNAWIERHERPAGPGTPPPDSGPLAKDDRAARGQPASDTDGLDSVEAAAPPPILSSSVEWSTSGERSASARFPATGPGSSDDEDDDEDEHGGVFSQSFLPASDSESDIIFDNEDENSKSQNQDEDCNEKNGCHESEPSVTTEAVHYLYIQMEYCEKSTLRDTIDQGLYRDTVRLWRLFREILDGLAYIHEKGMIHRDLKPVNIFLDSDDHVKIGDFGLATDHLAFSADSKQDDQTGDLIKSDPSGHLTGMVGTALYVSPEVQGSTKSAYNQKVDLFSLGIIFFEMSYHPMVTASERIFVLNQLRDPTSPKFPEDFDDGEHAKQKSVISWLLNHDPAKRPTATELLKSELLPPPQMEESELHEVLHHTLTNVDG
SMILES,IN-GCN2 interaction (%),further results
CC[C@H]1NC(=O)[C@@H](NC(=O)c2ncccc2O)[C@@H](C)OC(=O)[C@H](c2ccccc2)NC(=O)[C@@H]2CC(=O)CCN2C(=O)[C@H](Cc2ccccc2)N(C)C(=O)[C@@H]2CCCN2C1=O [NSC177858],35.20,–
COc1c(OC)c2c3c(nccc3c1OC)-c1cc(=O)c(OC)ccc1-2 [NSC785144],14.73,–
COC(=O)c1ccc(O)c2nc3c(C=O)c(O)cc(O)c3nc12 [NSC106995],28.53,–
CCCCC[C@@H](O)[C@H]1C(=O)O[C@H](C)[C@@H](O)/C=C/C=C/C=C/C=C/C=C(\C)[C@@H](O)[C@H](O)[C@H](O)C[C@H](O)C[C@H](O)C[C@H](O)C[C@H](O)C[C@@H]1O [NSC105388],86.99,–
CN1[C@@H]2CC[C@H]1CC(O)C2 (some centres unmarked) [NSC43871],99.50,–
COC(=O)[C@@H]1[C@H](O)[C@H](C)[C@H](O)[C@H](C)/C=C\C=C(/C)C(=O)Nc2c(C)c(OC(C)=O)c3c(c2O)C(=O)C(C)=C2OCOC(=C23)/C(C)=C/[C@@](C)(O)[C@H](O)[C@@H](C)[C@H]1O [NSC19990],69.46,–
COc1cc2c(cc1O)[C@@H](Cc1ccc(Oc3cc(C[C@H]4c5cc(O)c(OC)cc5CCN4C)ccc3OC)cc1)N(C)CC2 [NSC785183],47.22,–
O=C1NC(O)CCN1[C@@H]1O[C@H](CO)[C@@H](O)[C@H]1O (some centres unmarked) [NSC112907],123.97,–
O=c1cccc2n1C[C@H]1C[C@@H]2CN2CCCC[C@@H]12 [NSC21725],90.50,–
COc1cc(OC)c(C(=O)/C=C/c2ccc(OC)c(OC)c2)c(OC)c1 [NSC75527],89.20,–
CC(C)c1ccc(O)c(=O)cc1 [NSC18805],–,IN-GCN2 interaction (%) (listed as 18805): 75.92%
CC[C@H]1OC(=O)[C@H](C)[C@@H](O[C@H]2C[C@@](C)(O)[C@@H](O)[C@H](C)O2)[C@H](C)[C@@H](O)[C@](C)(O)C[C@@H](C)C(=O)[C@H](C)[C@@H](O)[C@H]1C [NSC209870],103.21,–
C[C@H]1O[C@@H](O[C@H]2[C@@H](O)C[C@H](O[C@H]3[C@@H](O)C[C@H](O[C@H]4CC[C@@]5(C)[C@H](CC[C@@H]6[C@@H]5CC[C@]5(C)[C@@H](C7=CC(=O)OC7)[C@@H](O)C[C@]65O)C4)O[C@@H]3C)O[C@@H]2C)C[C@H](O)[C@@H]1O [NSC95099],127.68,–
COc1cccc2c1cc([N+](=O)[O-])c1c(C(=O)O)cc3c(c12)OCO3 [NSC11926],137.25,–
OC[C@H]1O[C@@](CO)(O[C@H]2O[C@H](CO)[C@@H](O)[C@H](O)[C@H]2O)[C@@H](O[C@H]2O[C@H](CO)[C@@H](O)[C@H](O)[C@H]2O)[C@@H]1O [NSC2080],102.20,–
COC(=O)C1=COC(C)C2CN3CCc4c([nH]c5cc(OC)c(OC)cc45)C3CC12.O=C(O)CC(O)(CC(=O)O)C(=O)O (centres unmarked) [NSC72715],63.54,–
COC1=C2CC(C)CC(OC)C(O)C(C)/C=C(\C)C(OC(N)=O)C(OC)/C=C\C=C(/C)C(=O)NC(=C(/C=N/N3CCOCC3)C1=O)C2=O (centres unmarked) [NSC255112],78.82,–
COc1cc(/C=N\O)nc(-c2ccccn2)c1 [NSC114341],45.21,–
CO[C@@H]1/C=C/C=C(\C)Cc2cc(O)c(Cl)c(c2)N(C)C(=O)C[C@H](OC(=O)C(C)C)[C@]2(C)O[C@H]2[C@H](C)[C@@H]2C[C@@]1(O)NC(=O)O2 [NSC314018],97.15,–
C=C1C(=O)O[C@@H]2C[C@@]3(C)CCC[C@H](C)C3=C[C@H]12 [NSC302289],117.43,–
COc1c2c(c3c(c1OC)c(=O)c1ccccc1n3C)OCO2 [NSC34758],105.30,–

SMILES,IN-GCN2 interaction (%),further results
CC1(C)C(CC(=O)O)CC1C(=O)O (centres unmarked) [NSC2802],86.94,–
CC(C)c1ccc(O)c(=O)cc1 [NSC43338],–,IN-GCN2 interaction (%) (listed as 43338): 100.42%
COc1ccc(-c2c(C)c(C(=O)O)nc(-c3ccc4c(O)c(OC)c5c(c4n3)=NC(C)(C)N=5)c2N)c(O)c1OC [NSC62709],123.77,–
COC1C(C)OC(OC2CC(C)(O)Cc3cc4c(c(O)c32)C(=O)c2c(O)cc3c(c2C4=O)OC2OC3(C)C(O)C(N(C)C)C2O)C(OC)C1(C)OC (centres unmarked) [NSC265450],99.51,–
COc1cc2c(cc1O)C[C@H]1c3c(c(OC)c4c(c3-2)OCO4)CCN1C [NSC785179],39.12,–
COc1c(O)ccc2c1-c1c3c(cc4c1[C@H](C2)N(C)CC4)OCO3 [NSC785181],–,IN-GCN2 interaction (%) (listed as 785181): 54.07%
CO[C@H]1C[C@@H]2\C=C(C)/C=C/C=C\C(=O)N[C@H](c3ccccc3)C/C=C/CC[C@H](O)CC(=O)C2=C1O [NSC343256],61.66,–
CSC[S@@+]([O-])CC(CO)NC(=O)/C=C/c1c(C)[nH]c(=O)[nH]c1=O (some centres unmarked) [NSC59729],102.04,–
c1cc2c(c3c1C[C@@H]1NCCc4cc5c(c-3c41)OCO5)OCO2 [NSC785157],72.19,–
CO[C@@H]1/C=C\O[C@]2(C)Oc3c(C)c(O)c4c(O)c(c(CN(C)C)c(O)c4c3C2=O)NC(=O)/C(C)=C\C=C[C@@H](C)[C@@H](O)[C@H](C)[C@@H](O)[C@H](C)[C@H](OC(C)=O)[C@@H]1C [NSC145612],71.81,–
C[C@H](CCC(=O)O)[C@H]1CC[C@H]2[C@@H]3CC[C@@H]4C[C@H](O)CC[C@]4(C)[C@H]3C[C@H](O)[C@]12C [NSC8797],85.28,–
COc1ccc2c(c1OC)-c1c(OC)c(OC)cc3c1[C@H](C2)N(C)CC3 [NSC785146],58.90,–
O=C1CC=C2C3CC4N(CCC45c4ccccc4N1C25)C/C3=C\CO (centres unmarked) [NSC99791],109.54,–
CCC(C(=O)C(C)C(O)C(C)CCc1ccc(C)c(O)c1C(=O)O)C1OC(CC)(C2CCC(O)(CC)C(C)O2)CC1C (centres unmarked) [NSC177406],94.24,–
C[C@H]1CCC/C=C/[C@@H]2C[C@H](O)C[C@H]2[C@H](O)/C=C/C(=O)O1 [NSC89671],129.13,–
COc1cc2c3c(c1O)-c1cc(O)ccc1C[C@H]3N(C)CC2 [NSC785167],75.29,–
C=C1C(=O)OC2CC(C)C3(O)CCC(=O)C3(C)CC12 (centres unmarked) [NSC361902],90.19,–
COC1CC(C)C(OC)c2cc(O)cc(c2O)NC(=O)/C(C)=C\C=C/C(C)C(OC(N)=O)/C(C)=C\C(C)C1OC (centres unmarked) [NSC330500],77.16,–
O=C1C[C@@H]2OCC=C3CN4CC[C@]56c7ccccc7N1[C@H]5[C@H]2[C@H]3C[C@]46O [NSC99792],109.08,–
Cc1ccc(S(=O)(=O)NNC(=O)c2cc(C)c(C)cc2N)cc1 [NSC107453],88.25,–
COC1=CC(=O)C(C)=CC1=O [NSC3071],99.07,–

SMILES,IN-GCN2 interaction (%),further results
COC(=O)C1C2CC3c4[nH]c5cc(OC)ccc5c4CCN3CC2CC(OC(=O)CCc2cc(OC)c(OC)c(OC)c2)C1OC (centres unmarked) [NSC29854],63.08,–
COc1ccc2c(c1)O[C@H]1c3ccc(O)cc3OC[C@@H]21 [NSC350085],73.66,–
CC(=O)O[C@@H]1[C@@H](O)C2=C3[C@]4(C)[C@@H]1C(C)(C)C(=O)C[C@@H]4[C@]3(O)[C@H](OC(C)=O)[C@@]1(C[C@@H]1C)C2=O [NSC270914],122.29,–
Nc1ncn([C@@H]2O[C@H](CO)[C@@H](O)[C@H]2O)c(=O)n1 [NSC102816],106.78,–
Cc1c2ccncc2c(C)c2c1[nH]c1ccccc12 [NSC71795],107.18,–
CC(C)(O)[C@@H]1[C@H]2OC(=O)[C@@H]1[C@]1(O)C[C@H]3O[C@]34C(=O)O[C@H]2[C@]14C [NSC129536],112.62,–
COc1ccc(-c2oc3cc(O)c(OC)c(O)c3c(=O)c2OC)cc1O [NSC106969],98.61,–
CC1(C)C[C@]23[C@@H]4COC(=O)[C@H]2CC[C@H]1[C@@H]3CC4=O [NSC284437],100.65,–
COc1cc2c3c(c1O)-c1ccccc1C[C@@H]3N(C)CC2 [NSC785159],–,"effect on IN-GCN2 interaction in the screen, in words (100 µM, inactive = within 10% of the DMSO control): inactive; IN-GCN2 interaction (%) (listed as 785159): 94.21%"
CSC1SC[C@H]2C(=O)N(C)[C@@H](C(C)C)C(=O)OC[C@@H](NC(=O)c3cnc4ccccc4n3)C(=O)N[C@@H](C)C(=O)N(C)[C@@H]1C(=O)N(C)[C@@H](C(C)C)C(=O)OC[C@@H](NC(=O)c1cnc3ccccc3n1)C(=O)N[C@@H](C)C(=O)N2C (some centres unmarked) [NSC526417],53.14,–
COc1ccc(CC2C(=O)NC(C)C(=O)N(C)C3C(=O)N(C)C(Cc4ccc(O)c(c4)Oc4ccc(cc4)C3O)C(=O)NC(C)C(=O)NC(C)C(=O)N2C)cc1 (centres unmarked) [NSC259968],109.81,–
CCOc1ccc2c(c1)-c1c(O)c(OC)cc3c1[C@H](C2)N(C)CC3 [NSC785169],40.02,–
O=C1c2ccccc2C(=O)c2c1cc(O)c(O)c2O [NSC31754],87.55,–
CC1CC(O)C2C3(C)CCCC2(COC3=O)C12CCC1(CCOC1=O)O2 (centres unmarked) [NSC250429],134.45,–
CC[C@](C)(O)C(=O)O[C@H]1C(=O)O[C@@H]2C[C@H]3C(C)=CC(=O)[C@@H](O)[C@]3(C)[C@H]3[C@@]4(O)OC[C@]32[C@@H]1[C@@H](C)[C@H]4O [NSC132791],89.72,–
COC(=O)/C(=C1/OC(=O)C(c2ccccc2)=C1O)c1ccccc1 [NSC5897],95.33,–
C[C@H](N)C(=O)N[C@@H]1[C@H]2C(=C(O)C[C@@H](O)[C@@H]2O)C(=O)O[C@]1(C)C(Cl)Cl [NSC325014],94.06,–
[O-][N+]12CCCCC1CCCC2CO (centres unmarked) [NSC34552],80.42,–
O=C(O)C1(O)C[C@@H](O)C(O)[C@H](O)C1 (some centres unmarked) [NSC59258],–,IN-GCN2 interaction (%) (listed as 59258): 71.78%
